Experiments:
[1] = test system: adhesion of intestinal epithelial cells (HT-29) and monocytic cells (U937) induced by IL-6; experiment: Inhibition of IL-6-induced adhesion of monocytes and intestinal epithelial cells; assay type: cell-based, human; conditions: Homo sapiens
Summary of the method: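 HT-29 monolayers pretreated 1 h with test drug in 1% FBS medium, then co-incubated 3 h at 37 °C with BCECF-labeled U937 monocytes plus IL-6 (10 ng/mL). After removal of non-adherent cells, bound monocytes quantified by BCECF fluorescence of Triton X-100 lysates.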

[2] = test system: collagen-induced rheumatoid arthritis animal model; experiment: Oral efficacy in collagen-induced rheumatoid arthritis (CIA) mouse model; assay type: in vivo, DBA/1J mice
Procedure: 12-week-old normal male mice and arthritis-induced DBA/1J mice were purchased from Central Lab. Animal Inc [To induce arthritis, DBA/1J mice were sensitized by injecting a mixed solution of Complete Freund's Adjuvant (CFA; DIFCO, Detroit, MI) and Bovine Type II collagen (1:1, v/v) intradermally at the pinna base at 8 weeks of age, and then, secondary sensitization was performed by intradermal injection at the tail head at 11 weeks of age]. The purchased arthritis mice were acclimatized to the laboratory environment for a week, and then oral administration of the drug was started.
Visual observation of arthritic lesions was performed using the following scores based on a reference (Barnett et al., 1998).
Therefore, the highest score for arthritic lesions was 16 per mouse.
The hind paw thickness, which is one of the pathological indices of rheumatoid arthritis, was measured using a caliper.
The right hind leg of each mouse was extracted, and all skin and muscles were removed, leaving only the bones and joints. The hind leg was fixed in 4% paraformaldehyde solution for 2 days, then immersed in 10% formic acid for 5 days to decalcify, and then immersed in 30% sucrose solution. When the tissue subsided, the articular tissue was cut into […] thick using a cryomicrotome (Microm HM 450, Thermo Fisher Scientific, Germany) and stored in a cryopreservation solution. Staining was performed using the stored tissue sections. After attaching the tissue sections to the slide glass, they were hydrated with 100%, 95%, 70%, and 50% ethanol solutions, and some were stained with safranin and others were stained with hematoxylin/eosin. For safranin staining, the tissue sections were first stained with 0.1% fast green solution, washed with 1% acetic acid solution, and then stained with 1% safranin solution. Thereafter, the tissue sections were dehydrated by immersing in ethanol solutions in the reverse order of hydration, and then preserved in xylene solution and mounting solution, and photographed under a microscope. Hematoxylin/eosin staining was performed in the same manner as in the colon tissue staining. The tissue sections were dehydrated, preserved in xylene solution and mounting solution, and observed under a microscope.
The degree of microscopic tissue damage of the stained articular tissue was measured using the following scores.
After the spleen and draining lymph nodes of the mice were extracted, the number of immune cells was counted. To confirm the distribution of Th1 and Th17 cells, the immune cells obtained from each organ were stimulated using PMA/Ionomycin and Golgi stop.
After staining using an anti-IFN-γ antibody that can identify Th1 cells, an anti-IL-17 antibody that can identify Th17 cells, and an anti-CD8 antibody that can identify cytotoxic T cells, the proportion of inflammatory cells among the total immune cells was confirmed using flow cytometry.

[3] = test system: TNBS-induced inflammatory bowel disease rat model; experiment: Oral efficacy in TNBS-induced inflammatory bowel disease rat model; assay type: in vivo, Sprague Dawley rats
Procedure: Sprague Dawley rats aged 7-8 weeks were purchased from OrientBio (Korea), stabilized with general solid feed for 3 days, and then used in this experiment. Feed and water were freely supplied during the experiment period, and the temperature of the breeding room was maintained at 25±1° C. and the relative humidity at 50±10%. Lighting management was controlled in a 12-hour light-dark cycle by an automatic lighting controller.
After anesthetizing rats that had been fasted for 24 hours with diethyl ether, 0.8 mL of 5% TNBS diluted with 50v/v % ethanol was slowly injected into the lumen of the colon using a 1 mL syringe connected to a polyethylene catheter, and then, the rats were left standing for 60 seconds in an inverted position in order to prevent 5% TNBS from leaking into the anus. For the control group, only vehicle [50v/v % ethanol] was injected in the same manner as in the other groups (Thapa et al., 2008).
In order to investigate the effect of the drug, the drug was administered at a constant time every day for 5 days from the day after the TNBS treatment.
Changes in body weight of each rat were observed from the fasting stage to the TNBS administration and drug administration process using a digital mass meter.
The colon of the rat was extracted, and the tissue 5-6 cm away from the anus was cut into a length of 1 cm, and the weight of the tissue was measured.
The weighed rat tissues were fixed with 4% paraformaldehyde solution, and then transferred to 30% sucrose solution. When the tissues subside, they were taken out and cut into […] thick using a cryomicrotome (Microm HM 450, Thermo Fisher Scientific, Germany) and stored in a cryopreservation solution. After washing the tissue section with KPBS, the tissue section was attached to a slide glass, dried, and then stained with hematoxylin & Eosin and observed under a microscope.

[4] = 0.3 mg/kg, dose-dependence test (Table 7)
[5] = 1 mg/kg, dose-dependence test (Table 7)
[6] = 3 mg/kg, dose-dependence test (Table 7)
[7] = 10 mg/kg, dose-dependence test (Table 7)
[8] = oral 1 mg/kg, 5 days, fixed-dose test (Table 6)

- IC50 ([1]; inhibition of adhesion by IL-6): 340 nM
SMILES: Cc1ccc2[nH]c(C(=O)Nc3nc(C)c(O)c(C)c3C)cc2c1 [Compound X-09, N-(5-hydroxy-3,4,6-trimethylpyridin-2-yl)-5-methyl-1H-indole-2-carboxamide]
- inhibition at 1 µM ([1]; 3 h, test drug 1 μM, IL-6 10 ng/mL, HT-29/U937, read-out: inhibitory activity (%)): 71.7%
- number of inflammatory cells Th1 and Th17 and activated CD8 cells in spleen ([2]; after 35 days of drug administration, FIG. 8B): dose-dependent decrease
- number of inflammatory cells Th1 and Th17 and activated CD8 cells in draining lymph node ([2]; after 35 days of drug administration, FIG. 8C): dose-dependent effect
- hind paw thickness ([2]; oral 50 mg/kg, 35th day of drug administration): 1.70 mm
- arthritis score ([2]; oral 50 mg/kg, 35th day of drug administration, maximum score 16): 7.2
- degree of arthritis (visual observation score) ([2]; oral, up to 35 days, FIG. 5A): significantly improved dose dependently
- Body weight recovery rate (%) [3, 4]: 17.2%
- Intestinal weight recovery rate (%) [3, 4]: 47.0%
- Body weight recovery rate (%) [3, 5]: 69.3%
- Intestinal weight recovery rate (%) [3, 5]: 85.2%
- Body weight recovery rate (%) [3, 6]: 74.6%
- Intestinal weight recovery rate (%) [3, 6]: 91.7%
- Body weight recovery rate (%) [3, 7]: 80.8%
- Intestinal weight recovery rate (%) [3, 7]: 98.9%
- Mucosal damage recovery of rat colon (hematoxylin-eosin score) ([3]; X-09 dose range, FIG. 1): dose-dependent mucosal damage recovery activity
- Morphological observation of colon (visual symptoms, adhesions, congestion) ([3]; after 5 days of drug administration, sulfasalazine 300 mg/kg, X-09 0.3-10 mg/kg): dose-dependent therapeutic activity for enteritis
- Body weight recovery rate (%) [3, 8]: 72.7%
- Intestinal weight recovery rate (%) [3, 8]: 94.0%

Source: patent US12398117B2, “Heteroarylamidopyridinol derivative and pharmaceutical composition comprising same as active ingredient for prevention or treatment of autoimmune disease” (INNOVO THERAPEUTICS INC., priority 2019, dated 2025)
